Earlier results, collected in patent US20220241364A1, “Composition for Lowering Blood Glucose Level, Reducing Blood Hemoglobin A1c Content, or Increasing Blood HDL-Cholesterol Content” (House Wellness Foods Corporation, priority 2019, published 2022).

Conditions: in vivo

CC(C)=CC(=O)C[C@H](C)c1ccc(C)cc1 [ar turmerone]
elevation of blood sugar level: effect of inhibiting the elevation
